What was measured:
[1] = test system: patients with refractory CRS; assay: Part I prospective study, Rhinotopic therapy spray: Lund-Kennedy scores, clinical course, side effects; format: in vivo
From the text: The first part is a prospective study that includes 20 patients with refractory CRS, treated in with Rhinotopic therapy spray at a tertiary rhinology fellowship-training program. The patients were placed on the rhinotopic protocol only after they failed extended standard medical therapy. The latter is defined, for the purpose of this study, as three or more repeated courses of different oral antibiotics along with nasal corticosteroids sprays and nasal saline rinses (each lasting at least 3 weeks), within a 6 month-period, along with oral corticosteroids when indicated (in case of significant polyposis or Samter's triad). Patients who failed extended medical therapy were given the option of revision sinus surgery or rhinotopic therapy; all 20 patients chose rhinotopic therapy and were consented accordingly. […]
CT scans were reviewed prior to treatment and evaluated following the Lund-Mackay radiologic scoring system (9). Clinical response to treatment was monitored using the Lund-Kennedy (LK) symptoms score and the LK endoscopic appearance score (9). […] The LK symptoms score evaluated nasal congestion and obstruction, headache, facial pain, alteration I the sense of smell, nasal discharge, and sneezing. The LK endoscopic appearance score evaluated the presence or absence of nasal polyps, edema, discharge, scarring, and crusting on each side of the nasal cavity. […]

[2] = prolonged intravenous use; cited from earlier work

SMILES | patients who developed an allergic reaction (skin rash over the upper lip) ([1]; nebulized, stopped the treatment and dropped out) | side effects [2] | clinical response ([1]; intravenous, one patient, before the rhinotopic protocol)
CN[C@H](CC(C)C)C(=O)N[C@H]1C(=O)N[C@@H](CC(N)=O)C(=O)N[C@H]2C(=O)N[C@H]3C(=O)N[C@H](C(=O)N[C@H](C(=O)O)c4cc(O)cc(O)c4-c4cc3ccc4O)[C@H](O)c3ccc(c(Cl)c3)Oc3cc2cc(c3O[C@@H]2O[C@H](CO)[C@@H](O)[C@H](O)[C@H]2O[C@H]2C[C@](C)(N)[C@H](O)[C@H](C)O2)Oc2ccc(cc2Cl)[C@H]1O [Vancomycin] | One | toxicity to the kidneys and the inner ear | 
CC(C)(O/N=C(\C(=O)N[C@@H]1C(=O)N2C(C(=O)[O-])=C(C[n+]3ccccc3)CS[C@H]12)c1csc(N)n1)C(=O)O [ceftazidine] |  |  | improved transiently but their symptoms recurred

— US20140336463A1, “Rhinotopic therapy for the treatment of chronic rhinosinusitis biofilm disruption, treatment of mucosal granulation and sinus polyps” (priority 2009, published 2014)
